These results are taken from ChEMBL document CHEMBL1144770, “Synthesis, SAR and in vitro evaluation of new cyclic Arg-Gly-Asp pseudopentapeptides containing a s-cis peptide bond as integrin alphavbeta3 and alphavbeta5 ligands” (Bioorg Med Chem, 2008).

One assay concerns the target Integrin alpha-V/beta-3 (Homo sapiens, UniProt P05106+P06756). In words: Displacement of [125I]echistatin from human placental integrin alphaVbeta3 receptor. For orientation: In a radioligand displacement assay an active substance lowers the binding of a labelled ligand.
Another assay concerns the target Integrin alpha-V/beta-5 (Homo sapiens, UniProt P06756+P18084). In words: Displacement of [125I]Echistatin from human placental integrin alpha-V-beta-5 receptor.

What is called IC50 is the concentration needed to halve the response being measured.

Structures are written as SMILES.

Sequence of Integrin alpha-V/beta-5 (P06756 31-889 limits assumed): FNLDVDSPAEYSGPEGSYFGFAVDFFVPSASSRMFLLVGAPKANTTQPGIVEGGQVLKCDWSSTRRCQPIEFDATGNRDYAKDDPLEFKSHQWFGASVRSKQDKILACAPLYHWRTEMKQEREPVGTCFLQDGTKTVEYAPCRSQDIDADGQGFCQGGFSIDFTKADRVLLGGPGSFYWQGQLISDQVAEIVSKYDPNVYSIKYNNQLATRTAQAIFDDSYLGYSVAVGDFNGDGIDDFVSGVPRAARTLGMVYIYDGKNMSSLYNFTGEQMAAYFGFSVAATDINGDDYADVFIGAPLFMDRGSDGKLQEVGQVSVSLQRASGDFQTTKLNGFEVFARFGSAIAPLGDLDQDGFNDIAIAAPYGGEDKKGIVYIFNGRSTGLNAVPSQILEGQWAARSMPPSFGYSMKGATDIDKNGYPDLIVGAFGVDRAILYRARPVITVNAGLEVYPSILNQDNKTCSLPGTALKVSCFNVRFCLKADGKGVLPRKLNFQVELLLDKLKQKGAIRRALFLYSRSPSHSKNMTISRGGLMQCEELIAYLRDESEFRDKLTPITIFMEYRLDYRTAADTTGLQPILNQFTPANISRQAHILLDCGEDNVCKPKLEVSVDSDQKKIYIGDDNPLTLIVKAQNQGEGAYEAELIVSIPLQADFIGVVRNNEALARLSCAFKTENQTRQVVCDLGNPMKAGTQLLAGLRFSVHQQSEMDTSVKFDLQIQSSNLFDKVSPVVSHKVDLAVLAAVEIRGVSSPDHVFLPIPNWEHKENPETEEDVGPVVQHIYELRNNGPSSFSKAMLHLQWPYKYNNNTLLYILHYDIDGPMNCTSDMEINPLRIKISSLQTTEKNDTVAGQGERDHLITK
Sequence of Integrin alpha-V/beta-5 (P06756 891-1048 limits assumed): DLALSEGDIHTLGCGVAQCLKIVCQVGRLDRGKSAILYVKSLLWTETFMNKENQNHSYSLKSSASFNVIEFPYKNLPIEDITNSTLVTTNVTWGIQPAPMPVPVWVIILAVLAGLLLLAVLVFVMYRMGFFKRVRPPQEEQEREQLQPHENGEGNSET
Sequence of Integrin alpha-V/beta-5 (P18084 24-799 limits assumed): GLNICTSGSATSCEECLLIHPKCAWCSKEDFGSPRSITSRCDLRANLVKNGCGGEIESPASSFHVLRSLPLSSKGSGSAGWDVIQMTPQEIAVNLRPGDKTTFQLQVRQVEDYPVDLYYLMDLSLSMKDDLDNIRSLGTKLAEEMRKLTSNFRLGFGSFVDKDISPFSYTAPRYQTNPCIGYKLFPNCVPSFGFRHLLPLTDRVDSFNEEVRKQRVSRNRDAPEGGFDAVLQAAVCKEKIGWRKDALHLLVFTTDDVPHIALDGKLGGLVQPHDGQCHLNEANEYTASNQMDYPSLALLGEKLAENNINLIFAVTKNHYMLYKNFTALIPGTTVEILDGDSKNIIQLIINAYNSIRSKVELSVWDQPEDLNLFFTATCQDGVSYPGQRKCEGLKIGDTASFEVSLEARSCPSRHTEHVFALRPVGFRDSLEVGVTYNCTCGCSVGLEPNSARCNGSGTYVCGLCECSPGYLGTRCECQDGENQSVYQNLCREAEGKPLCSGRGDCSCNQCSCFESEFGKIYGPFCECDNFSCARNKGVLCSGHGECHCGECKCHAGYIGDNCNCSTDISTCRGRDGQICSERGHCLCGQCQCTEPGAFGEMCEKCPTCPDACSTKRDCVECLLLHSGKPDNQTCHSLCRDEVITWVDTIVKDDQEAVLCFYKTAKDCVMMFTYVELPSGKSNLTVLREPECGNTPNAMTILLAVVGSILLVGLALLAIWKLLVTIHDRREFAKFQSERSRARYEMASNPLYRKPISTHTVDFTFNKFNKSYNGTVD
Sequence of Integrin alpha-V/beta-3 (P05106 27-788 limits assumed): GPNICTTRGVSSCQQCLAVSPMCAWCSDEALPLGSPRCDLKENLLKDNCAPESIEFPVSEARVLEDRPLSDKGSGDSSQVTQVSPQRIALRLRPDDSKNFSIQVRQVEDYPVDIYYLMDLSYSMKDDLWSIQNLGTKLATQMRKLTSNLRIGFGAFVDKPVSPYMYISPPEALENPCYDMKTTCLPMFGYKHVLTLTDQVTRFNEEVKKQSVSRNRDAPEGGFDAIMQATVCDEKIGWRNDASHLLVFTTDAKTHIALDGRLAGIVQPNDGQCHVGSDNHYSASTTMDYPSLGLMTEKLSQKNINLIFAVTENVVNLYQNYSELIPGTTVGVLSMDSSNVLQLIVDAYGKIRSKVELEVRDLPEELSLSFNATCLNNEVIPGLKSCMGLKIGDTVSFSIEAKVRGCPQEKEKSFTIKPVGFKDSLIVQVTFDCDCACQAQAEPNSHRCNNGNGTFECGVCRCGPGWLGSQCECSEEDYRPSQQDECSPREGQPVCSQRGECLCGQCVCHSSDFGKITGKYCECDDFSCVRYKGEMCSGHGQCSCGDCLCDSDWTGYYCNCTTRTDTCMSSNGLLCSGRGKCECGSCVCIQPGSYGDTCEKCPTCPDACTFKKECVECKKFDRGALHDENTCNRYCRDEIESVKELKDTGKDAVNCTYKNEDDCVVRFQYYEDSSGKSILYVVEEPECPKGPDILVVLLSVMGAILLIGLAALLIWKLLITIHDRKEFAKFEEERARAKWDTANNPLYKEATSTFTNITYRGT
Sequence of Integrin alpha-V/beta-3 (P06756 31-889 limits assumed): as the sequence (P06756 31-889 limits assumed) above
Sequence of Integrin alpha-V/beta-3 (P06756 891-1048 limits assumed): as the sequence (P06756 891-1048 limits assumed) above

Regarding `NC(N)=NCCC[C@@H]1NC(=O)[C@]23CCCN2C(=O)[C@@H](C3)NC(=O)[C@H](CC(=O)O)NC(=O)CNC1=O`, the IC50 at Integrin alpha-V/beta-3 came out at 2150 nM; at Integrin alpha-V/beta-5, 7960 nM.
In the case of `N=C(N)NCCC[C@@H]1NC(=O)[C@@]23CCCN2C(=O)[C@H](C3)NC(=O)[C@H](CC(=O)O)NC(=O)CNC1=O`, the figures for the IC50 at Integrin alpha-V/beta-3 and on Integrin alpha-V/beta-5 were 34.4 nM and 14.3 nM, respectively.
